A value given as a limit tells only on which side of the number the result lay.

The target in assay [1] is Heat shock protein HSP 90-alpha (Homo sapiens, UniProt P07900).
Description: Inhibition of recombinant HSP90alpha (unknown origin) incubated for 24 hrs in presence of 1-FITC3 probe by fluorescence polarization assay
In assay [2] the target is T1, Heat shock protein 75 kDa, mitochondrial (Homo sapiens, UniProt Q12931).
T1 sequence (Q12931 whole entry): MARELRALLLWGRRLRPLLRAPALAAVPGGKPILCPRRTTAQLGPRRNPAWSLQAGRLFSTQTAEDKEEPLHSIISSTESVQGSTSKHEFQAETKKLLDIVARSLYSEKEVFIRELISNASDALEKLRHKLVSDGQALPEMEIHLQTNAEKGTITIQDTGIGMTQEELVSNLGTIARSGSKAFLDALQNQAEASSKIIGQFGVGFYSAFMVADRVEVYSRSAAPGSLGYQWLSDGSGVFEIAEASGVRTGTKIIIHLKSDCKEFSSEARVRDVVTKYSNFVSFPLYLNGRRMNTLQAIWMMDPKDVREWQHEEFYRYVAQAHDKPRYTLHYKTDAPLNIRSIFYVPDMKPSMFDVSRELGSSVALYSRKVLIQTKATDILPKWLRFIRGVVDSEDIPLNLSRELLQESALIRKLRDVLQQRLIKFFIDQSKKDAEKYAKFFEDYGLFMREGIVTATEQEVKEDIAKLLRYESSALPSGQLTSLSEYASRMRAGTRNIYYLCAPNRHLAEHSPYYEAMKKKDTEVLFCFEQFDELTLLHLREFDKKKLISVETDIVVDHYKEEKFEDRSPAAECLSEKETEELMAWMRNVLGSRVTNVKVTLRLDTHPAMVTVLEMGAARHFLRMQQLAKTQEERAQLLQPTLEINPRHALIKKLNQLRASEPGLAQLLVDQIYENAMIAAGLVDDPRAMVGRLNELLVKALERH
In words: Inhibition of TRAP1 (unknown origin).

For assay [3], the target named is Endoplasmin (Homo sapiens, UniProt P14625). The assay is described as follows: Inhibition of GRP94 (unknown origin).
Assay [4] has as its system HeLa. In words: Antiproliferative activity against human HeLa cells by MTT assay. It counts as functional, cell-based. A general note: Tetrazolium dyes change colour on reduction, which living cells bring about.
Assay [5] concerns PC-3. In words: Antiproliferative activity against human PC3 cells by MTT assay. It counts as functional, cell-based.

Sequence of Endoplasmin (P14625 whole entry): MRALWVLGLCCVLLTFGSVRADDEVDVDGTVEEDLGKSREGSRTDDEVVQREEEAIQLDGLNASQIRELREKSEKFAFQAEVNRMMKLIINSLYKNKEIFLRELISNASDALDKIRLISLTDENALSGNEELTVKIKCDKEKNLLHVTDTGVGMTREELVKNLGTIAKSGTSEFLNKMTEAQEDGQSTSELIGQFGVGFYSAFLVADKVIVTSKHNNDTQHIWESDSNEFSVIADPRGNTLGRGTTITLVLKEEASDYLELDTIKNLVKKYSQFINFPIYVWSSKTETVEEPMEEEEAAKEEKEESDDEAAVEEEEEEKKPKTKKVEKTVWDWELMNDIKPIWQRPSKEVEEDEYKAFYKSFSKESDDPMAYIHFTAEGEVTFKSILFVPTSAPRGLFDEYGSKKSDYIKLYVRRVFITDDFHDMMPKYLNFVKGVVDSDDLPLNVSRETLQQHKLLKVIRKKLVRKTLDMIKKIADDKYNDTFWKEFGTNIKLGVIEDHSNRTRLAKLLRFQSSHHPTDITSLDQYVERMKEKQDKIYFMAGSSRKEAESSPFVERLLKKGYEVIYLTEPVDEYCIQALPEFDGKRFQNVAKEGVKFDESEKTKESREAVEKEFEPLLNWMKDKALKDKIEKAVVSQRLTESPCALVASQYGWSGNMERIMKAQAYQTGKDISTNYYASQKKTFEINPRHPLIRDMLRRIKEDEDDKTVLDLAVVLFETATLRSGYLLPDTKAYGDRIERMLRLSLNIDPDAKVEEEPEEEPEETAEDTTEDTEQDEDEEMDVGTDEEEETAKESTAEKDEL

What is called IC50 is the point on the concentration scale where inhibition reaches its midpoint. Low readings indicate greater potency in that assay, high ones weaker potency in that assay. In the case of `CC(C)c1cc(-c2nn[nH]c2-c2ccc(S(C)(=O)=O)cc2)c(O)cc1O`, 166 nM corresponded to half-maximal inhibition in assay [1] (IC50).
Regarding `CC(C)c1cc(-c2nn[nH]c2-c2ccc3c(c2)OCCO3)c(O)cc1O`, the IC50 in assay [1] was 169 nM.
`CC(C)c1cc(-c2nnn(CC(N)=O)c2-c2ccc(S(C)(=O)=O)cc2)c(O)cc1O` displayed an IC50 in assay [1] of 136 nM.
Turning to `CC(C)c1cc(-c2nnn(CC(=O)O)c2-c2ccc(S(C)(=O)=O)cc2)c(O)cc1O`, 187 nM corresponded to half-maximal inhibition in assay [1] (IC50).
On to `CCOC(=O)Cn1nnc(-c2cc(C(C)C)c(O)cc2O)c1-c1cccc(S(C)(=O)=O)c1`, for which the values for the IC50 in assay [1], in assay [2] and in assay [3] were 53.1 nM, 35100 nM and 96.2 nM, respectively.
For the compound `COC(=O)Cn1nnc(-c2cc(C(C)C)c(O)cc2O)c1-c1ccc2c(c1)OCCO2`, the IC50 stood at 47.8 nM in assay [1]; 11900 nM in assay [2]; 78 nM in assay [3]; 500 nM in assay [4]; 234 nM in assay [5].
The compound `CCOC(=O)Cn1nnc(-c2cc(CC)c(O)cc2O)c1-c1ccc(CN2CCOCC2)cc1` yielded a half-maximal inhibitory concentration (IC50) in assay [1] of 178 nM.
Regarding `CCc1cc(-c2nnn(CC(=O)OC)c2-c2ccc3c(c2)OCCO3)c(O)cc1O`, in assay [1], it took 173 nM to reach half-maximal inhibition (IC50).
Turning to `COC(=O)Cn1nnc(-c2cc(C(C)C)c(O)cc2O)c1-c1ccc(CN2CCOCC2)cc1`, the half-maximal inhibitory concentration (IC50) in assay [1] was determined as 91 nM; in assay [2], 24500 nM; in assay [3] it was 197 nM.
Take `COC(=O)Cn1nnc(-c2cc(C(C)C)c(O)cc2O)c1-c1cccc(NS(C)(=O)=O)c1`: the values for the IC50 in assay [1], in assay [2] and in assay [3] were 78.3 nM, 24500 nM and 190 nM, respectively.
In turn, `CCc1cc(-c2nnn(CC(=O)OC)c2-c2cccc(NS(C)(=O)=O)c2)c(O)cc1O` returned a 50% inhibitory concentration (IC50) in assay [1] of 184 nM.
`COC(=O)Cn1nnc(-c2cc(C(C)C)c(O)cc2O)c1-c1ccc(S(C)(=O)=O)cc1`: the half-maximal inhibitory concentration (IC50) in assay [1] is 43.3 nM; in assay [2], 16000 nM; in assay [3], 89 nM; in assay [4] it was greater than 2000 nM; in assay [5], 460 nM.
Compound `CCc1cc(-c2nnn(CC(=O)OC)c2-c2cccc(S(C)(=O)=O)c2)c(O)cc1O` had an IC50 in assay [1] of 154 nM.
As to `CCOC(=O)Cn1nnc(-c2cc(C(C)C)c(O)cc2O)c1-c1ccc2c(c1)OCCO2`, the IC50 in assay [1] came out at 60.9 nM; in assay [2] it was 25400 nM; in assay [3], 192 nM.
As for `CC(C)c1cc(-c2nnn(Cc3ccccc3)c2-c2ccc(S(C)(=O)=O)cc2)c(O)cc1O`, the IC50 in assay [1] is 45.7 nM; in assay [2], 8480 nM; in assay [3], 78 nM; in assay [4] it was 206 nM; in assay [5], 286 nM.
In assay [1], `CC(C)c1cc(-c2nnn(CC(=O)O)c2-c2cccc(S(C)(=O)=O)c2)c(O)cc1O` displayed a concentration for half-maximal inhibition (IC50) of 173 nM.
`CC(C)c1cc(-c2nnn(CC(N)=O)c2-c2ccc3c(c2)OCCO3)c(O)cc1O` had a half-inhibitory concentration (IC50) in assay [1] of 134 nM.
Take `CC(C)c1cc(-c2nnn(CC(=O)O)c2-c2cccc(NS(C)(=O)=O)c2)c(O)cc1O`: the concentration for half-maximal inhibition (IC50) in assay [1] turned out to be 767 nM.
`CCc1cc(-c2nnn(CC(N)=O)c2-c2ccc(S(C)(=O)=O)cc2)c(O)cc1O` registered an IC50 in assay [1] of 470 nM.
As for `CC(C)c1cc(-c2nn[nH]c2-c2ccccc2)c(O)cc1O`, half-maximal inhibition in assay [1] (IC50) required 296 nM.
Same read-out and setting: under `COC(=O)Cn1nnc(-c2cc(C(C)C)c(O)cc2O)c1-c1ccc(O)c(O)c1` stands 153 nM; under `CCOC(=O)Cn1nnc(-c2cc(CC)c(O)cc2O)c1-c1ccc(S(C)(=O)=O)cc1`, 304 nM.
For `COC(=O)Cn1nnc(-c2cc(C(C)C)c(O)cc2O)c1-c1cccc(S(C)(=O)=O)c1`, the IC50 in assay [1] is 43.1 nM; in assay [2] it was 17400 nM; in assay [3] it was 54.1 nM; in assay [4], greater than 2000 nM; in assay [5] it was 569 nM.
In turn, `CCOC(=O)Cn1nnc(-c2cc(CC)c(O)cc2O)c1-c1cccc(S(C)(=O)=O)c1` yielded an IC50 in assay [1] of 161 nM.
For `COC(=O)Cn1nnc(-c2cc(C(C)C)c(O)cc2O)c1-c1ccc(CN2CCCCC2)cc1`, the values for the 50% inhibitory concentration (IC50) in assay [1], in assay [2] and in assay [3] were 57 nM, 6980 nM and 49.4 nM, respectively.
As for `COC(=O)Cn1nnc(-c2cc(C(C)C)c(O)cc2O)c1-c1ccc(OCCN(C)C)cc1`, the half-maximal inhibitory concentration (IC50) worked out at 71.2 nM in assay [1], 14100 nM in assay [2] and 175 nM in assay [3].
Turning to `CCOC(=O)Cn1nnc(-c2cc(C(C)C)c(O)cc2O)c1-c1ccc(S(C)(=O)=O)cc1`, the IC50 in assay [1] came to 41.8 nM; in assay [2] it was 16000 nM; in assay [3], 100 nM; in assay [4] it was 402 nM; in assay [5], 324 nM.
In assay [1], `CCc1cc(-c2nnn(CC(=O)OC)c2-c2ccc(S(C)(=O)=O)cc2)c(O)cc1O` came in with a concentration for half-maximal inhibition (IC50) of 214 nM.
Compound `CC(C)c1cc(-c2nnn(CC(=O)O)c2-c2ccc3c(c2)OCCO3)c(O)cc1O` registered an IC50 in assay [1] of 176 nM.
`CCOC(=O)Cn1nnc(-c2cc(C(C)C)c(O)cc2O)c1-c1cccc(NS(C)(=O)=O)c1`: the half-inhibitory concentration (IC50) in assay [1] was 77 nM; in assay [2], 33200 nM; in assay [3], 209 nM.
Regarding `CC(C)c1cc(-c2n[nH]c(=O)n2-c2ccc3c(ccn3C)c2)c(O)cc1O` [GANETESPIB], the half-maximal inhibitory concentration (IC50) amounted to 37.7 nM in assay [3], 11.7 nM in assay [4] and 9.3 nM in assay [5].
`CC(C)NCCCn1c(Sc2cc3c(cc2I)OCO3)nc2c(N)ncnc21` [PU-H71]: the concentration for half-maximal inhibition (IC50) in assay [4] is 226 nM; in assay [5] it was 363 nM.

These data come from ChEMBL document CHEMBL4613233, “Discovery of 2-((4-resorcinolyl)-5-aryl-1,2,3-triazol-1-yl)acetates as potent Hsp90 inhibitors with selectivity over TRAP1” (Bioorg Med Chem Lett, 2020).
